Laboratory results from article PMC6044503 (ACS Omega, 2017).
Where a SMILES comes first, the peptide text is derived from it. [ ]: non-standard residue; d: D form. The star is where a group is joined. Phe(4-F) = N[C@@H](Cc1ccc(F)cc1)C(=O)O; 2Nal = N[C@@H](Cc1ccc2ccccc2c1)C(=O)O; Cyclohexanecarbonyl = O=C(C1CCCCC1)*; Cha = N[C@@H](CC1CCCCC1)C(=O)O; 4Amb = NCc1ccc(C(=O)O)cc1; Isobutyryl = CC(C)C(=O)*; Aib = CC(C)(N)C(=O)O; Bz = O=C(c1ccccc1)*

Legend:
human Y2R [1] = target: T1, human Y2R (Homo sapiens, UniProt P49146); assay: biochemical; assay type: binding
T1 sequence (P49146 1-381): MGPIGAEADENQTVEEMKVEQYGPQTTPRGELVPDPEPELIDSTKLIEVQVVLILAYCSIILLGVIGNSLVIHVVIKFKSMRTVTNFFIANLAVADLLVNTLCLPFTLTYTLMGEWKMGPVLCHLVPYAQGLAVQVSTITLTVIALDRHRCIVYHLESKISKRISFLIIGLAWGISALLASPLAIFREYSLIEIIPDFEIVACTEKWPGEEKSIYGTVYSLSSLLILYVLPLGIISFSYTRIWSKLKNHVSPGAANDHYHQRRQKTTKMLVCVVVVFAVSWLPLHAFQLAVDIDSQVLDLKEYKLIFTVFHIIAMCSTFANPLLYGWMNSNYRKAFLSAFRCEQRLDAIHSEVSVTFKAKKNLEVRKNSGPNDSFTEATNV

human Y2R [2] = target: T1, human Y2R; assay: biochemical; assay type: biochemical
male C57BL/6J mice = assay: Food intake assay, bolus ip administration in lean mice; assay type: in vivo, mouse; conditions: 3 h after administration, vs saline, mean ± SD
[3] = Stability in 20% mouse serum/PBS; assay type: in vitro ADME; conditions: for remaining at 0.5 h: mouse, 20% mouse serum in PBS

CC[C@H](C)[C@H](NC(=O)[C@H](Cc1ccc(O)cc1)NC(=O)[C@H](C)NC(=O)[C@H](CCCNC(=N)N)NC(=O)c1ccccc1)C(=O)N[C@@H](CC(N)=O)C(=O)N[C@@H](CC(C)C)C(=O)N[C@H](C(=O)N[C@H](C(=O)N[C@@H](CCCNC(=N)N)C(=O)N[C@@H](CCC(N)=O)C(=O)N[C@@H](CCCNC(=N)N)C(=O)N[C@@H](Cc1ccc(O)cc1)C(N)=O)[C@@H](C)O)[C@@H](C)CC [Compound 1, benzoyl-[Ala^26,Ile^28,31]PYY(25–36)] (Bz-RAYINLITRQRY-NH2)
IC50 (human Y2R [1]): 16 nM
EC50 (human Y2R [2]): 1.7 nM
% food intake inhibition (male C57BL/6J mice; bolus ip 2000 nmol/kg): 25 ± 7%
remaining at 0.5 h [3]: 5%

CC[C@H](C)[C@H](NC(=O)[C@H](Cc1ccc(O)cc1)NC(=O)[C@H](C)NC(=O)[C@H](CCCNC(=N)N)NC(=O)c1ccccc1)C(=O)N[C@@H](CC(N)=O)C(=O)N[C@@H](CC(C)C)C(=O)N[C@H](C(=O)N[C@H](C(=O)N[C@@H](CCCNC(=N)N)C(=O)N[C@@H](CCC(N)=O)C(=O)N[C@@H](CCCNC(=N)N)C(=O)N[C@@H](CC1CCCCC1)C(N)=O)[C@@H](C)O)[C@@H](C)CC [Compound 2] (Bz-RAYINLITRQR[Cha]-NH2)
IC50 (human Y2R [1]): 3.2 nM
EC50 (human Y2R [2]): 1.1 nM
% food intake inhibition (male C57BL/6J mice; bolus ip 2000 nmol/kg): 21 ± 5%
remaining at 0.5 h [3]: 53%

CC[C@H](C)[C@H](NC(=O)[C@H](CC1CCCCC1)NC(=O)[C@H](Cc1c[nH]cn1)NC(=O)[C@H](CCCNC(=N)N)NC(=O)c1ccccc1)C(=O)N[C@@H](CC(N)=O)C(=O)N[C@@H](CC(C)C)C(=O)N[C@H](C(=O)N[C@H](C(=O)N[C@@H](CCCNC(=N)N)C(=O)N[C@@H](CCC(N)=O)C(=O)N[C@@H](CCCNC(=N)N)C(=O)N[C@@H](Cc1ccc(O)cc1)C(N)=O)[C@@H](C)O)[C@@H](C)CC [Compound 3] (Bz-RH[Cha]INLITRQRY-NH2)
IC50 (human Y2R [1]): 15 nM
EC50 (human Y2R [2]): 1.9 nM
% food intake inhibition (male C57BL/6J mice; bolus ip 1000 nmol/kg): 17 ± 7%
% food intake inhibition (male C57BL/6J mice; bolus ip 2000 nmol/kg): 39 ± 7%
remaining at 0.5 h [3]: 10%

CC[C@H](C)[C@H](NC(=O)[C@H](CC1CCCCC1)NC(=O)[C@H](Cc1c[nH]cn1)NC(=O)[C@H](CCCNC(=N)N)NC(=O)c1ccccc1)C(=O)N[C@@H](CC(N)=O)C(=O)N[C@@H](CC(C)C)C(=O)N[C@H](C(=O)N[C@H](C(=O)N[C@@H](CCCNC(=N)N)C(=O)N[C@@H](CCC(N)=O)C(=O)N[C@@H](CCCNC(=N)N)C(=O)N[C@@H](CC1CCCCC1)C(N)=O)[C@@H](C)O)[C@@H](C)CC [Compound 4] (Bz-RH[Cha]INLITRQR[Cha]-NH2)
IC50 (human Y2R [1]): 7.2 nM
EC50 (human Y2R [2]): 3.6 nM
% food intake inhibition (male C57BL/6J mice; bolus ip 1000 nmol/kg): 34 ± 6%
remaining at 0.5 h [3]: 102%
metabolites in mouse serum ([3]; within 30 min in 20% mouse serum/PBS): did not yield any apparent metabolites

CC[C@H](C)[C@H](NC(=O)[C@H](CC1CCCCC1)NC(=O)[C@H](Cc1c[nH]cn1)NC(=O)[C@H](CCCNC(=N)N)NC(=O)c1ccccc1)C(=O)N[C@@H](CC(N)=O)C(=O)N[C@@H](Cc1c[nH]c2ccccc12)C(=O)N[C@H](C(=O)N[C@H](C(=O)N[C@@H](CCCNC(=N)N)C(=O)N[C@@H](CCC(N)=O)C(=O)N[C@@H](CCCNC(=N)N)C(=O)N[C@@H](CC1CCCCC1)C(N)=O)[C@@H](C)O)[C@@H](C)CC [Compound 5] (Bz-RH[Cha]INWITRQR[Cha]-NH2)
IC50 (human Y2R [1]): 9.8 nM
EC50 (human Y2R [2]): 2.3 nM
% food intake inhibition (male C57BL/6J mice; bolus ip 250 nmol/kg): 10 ± 4%
% food intake inhibition (male C57BL/6J mice; bolus ip 500 nmol/kg): 8 ± 7%
% food intake inhibition (male C57BL/6J mice; bolus ip 1000 nmol/kg): 40 ± 2%
% food intake inhibition (male C57BL/6J mice; bolus ip 2000 nmol/kg): 65 ± 5%
remaining at 0.5 h [3]: 93%

CC[C@H](C)[C@H](NC(=O)[C@H](CC1CCCCC1)NC(=O)[C@H](Cc1c[nH]cn1)NC(=O)[C@H](CCCNC(=N)N)NC(=O)c1ccccc1)C(=O)N[C@@H](CC(N)=O)C(=O)N[C@@H](Cc1ccc(F)cc1)C(=O)N[C@H](C(=O)N[C@H](C(=O)N[C@@H](CCCNC(=N)N)C(=O)N[C@@H](CCC(N)=O)C(=O)N[C@@H](CCCNC(=N)N)C(=O)N[C@@H](CC1CCCCC1)C(N)=O)[C@@H](C)O)[C@@H](C)CC [Compound 6] (Bz-RH[Cha]IN[Phe(4-F)]ITRQR[Cha]-NH2)
IC50 (human Y2R [1]): 11 nM
EC50 (human Y2R [2]): 2.9 nM
% food intake inhibition (male C57BL/6J mice; bolus ip 500 nmol/kg): 18 ± 5%
% food intake inhibition (male C57BL/6J mice; bolus ip 1000 nmol/kg): 40 ± 5%
remaining at 0.5 h [3]: 96%

CC[C@H](C)[C@H](NC(=O)[C@H](CC1CCCCC1)NC(=O)[C@H](Cc1c[nH]cn1)NC(=O)[C@H](CCCNC(=N)N)NC(=O)c1ccccc1)C(=O)N[C@@H](CC(N)=O)C(=O)N[C@@H](CC(C)C)C(=O)N[C@@H](CC1CCCCC1)C(=O)N[C@H](C(=O)N[C@@H](CCCNC(=N)N)C(=O)N[C@@H](CCC(N)=O)C(=O)N[C@@H](CCCNC(=N)N)C(=O)N[C@@H](CC1CCCCC1)C(N)=O)[C@@H](C)O [Compound 8] (Bz-RH[Cha]INL[Cha]TRQR[Cha]-NH2)
IC50 (human Y2R [1]): 25 nM
EC50 (human Y2R [2]): 7.3 nM
% food intake inhibition (male C57BL/6J mice; bolus ip 500 nmol/kg): 17 ± 8%
% food intake inhibition (male C57BL/6J mice; bolus ip 1000 nmol/kg): 46 ± 8%
remaining at 0.5 h [3]: 114%

CC(C)C[C@H](NC(=O)[C@H](CC(N)=O)NC(=O)[C@H](CC1CCCCC1)NC(=O)[C@H](CC1CCCCC1)NC(=O)[C@H](Cc1c[nH]cn1)NC(=O)[C@H](CCCNC(=N)N)NC(=O)C1CCCCC1)C(=O)NC(C)(C)C(=O)N[C@H](C(=O)N[C@@H](CCCNC(=N)N)C(=O)N[C@@H](CCC(N)=O)C(=O)N[C@@H](CCCNC(=N)N)C(=O)N[C@@H](CC1CCCCC1)C(N)=O)[C@@H](C)O [Compound 22] (Cyclohexanecarbonyl-RH[Cha][Cha]NL[Aib]TRQR[Cha]-NH2)
IC50 (human Y2R [1]): 11 nM
EC50 (human Y2R [2]): 4 nM
% food intake inhibition (male C57BL/6J mice; bolus ip 500 nmol/kg): 25 ± 7%

CC(C)C[C@H](NC(=O)[C@H](CC(N)=O)NC(=O)[C@H](CC1CCCCC1)NC(=O)[C@H](CC1CCCCC1)NC(=O)[C@H](Cc1c[nH]cn1)NC(=O)[C@H](CCCNC(=N)N)NC(=O)C(C)C)C(=O)NC(C)(C)C(=O)N[C@H](C(=O)N[C@@H](CCCNC(=N)N)C(=O)N[C@@H](CCC(N)=O)C(=O)N[C@@H](CCCNC(=N)N)C(=O)N[C@@H](CC1CCCCC1)C(N)=O)[C@@H](C)O [Compound 23] (Isobutyryl-RH[Cha][Cha]NL[Aib]TRQR[Cha]-NH2)
IC50 (human Y2R [1]): 3.1 nM
EC50 (human Y2R [2]): 1.2 nM
% food intake inhibition (male C57BL/6J mice; bolus ip 250 nmol/kg): 14 ± 7%
% food intake inhibition (male C57BL/6J mice; bolus ip 500 nmol/kg): 20 ± 11%

CC(C)C[C@H](NC(=O)[C@H](CC(N)=O)NC(=O)[C@H](CC1CCCCC1)NC(=O)[C@H](CC1CCCCC1)NC(=O)[C@H](Cc1cnc[nH]1)NC(=O)[C@H](CCCNC(=N)N)NC(=O)c1ccc(CN)cc1)C(=O)NC(C)(C)C(=O)N[C@H](C(=O)N[C@@H](CCCNC(=N)N)C(=O)N[C@@H](CCC(N)=O)C(=O)N[C@@H](CCCNC(=N)N)C(=O)N[C@@H](CC1CCCCC1)C(N)=O)[C@@H](C)O [Compound 24] (H-[4Amb]RH[Cha][Cha]NL[Aib]TRQR[Cha]-NH2)
IC50 (human Y2R [1]): 0.65 nM
EC50 (human Y2R [2]): 0.48 nM
% food intake inhibition (male C57BL/6J mice; bolus ip 500 nmol/kg): 29 ± 7%

C[C@@H](O)[C@H](NC(=O)C(C)(C)NC(=O)[C@H](Cc1c[nH]c2ccccc12)NC(=O)[C@H](CC(N)=O)NC(=O)[C@H](CC1CCCCC1)NC(=O)[C@H](CC1CCCCC1)NC(=O)[C@H](Cc1c[nH]cn1)NC(=O)[C@H](CCCNC(=N)N)NC(=O)C1CCCCC1)C(=O)N[C@@H](CCCNC(=N)N)C(=O)N[C@@H](CCC(N)=O)C(=O)N[C@@H](CCCNC(=N)N)C(=O)N[C@@H](CC1CCCCC1)C(N)=O [Compound 27] (Cyclohexanecarbonyl-RH[Cha][Cha]NW[Aib]TRQR[Cha]-NH2)
IC50 (human Y2R [1]): 8.9 nM
EC50 (human Y2R [2]): 2.2 nM
% food intake inhibition (male C57BL/6J mice; bolus ip 500 nmol/kg): 12 ± 8%

C[C@@H](O)[C@H](NC(=O)C(C)(C)NC(=O)[C@H](Cc1ccc(F)cc1)NC(=O)[C@H](CC(N)=O)NC(=O)[C@H](CC1CCCCC1)NC(=O)[C@H](CC1CCCCC1)NC(=O)[C@H](Cc1c[nH]cn1)NC(=O)[C@H](CCCNC(=N)N)NC(=O)C1CCCCC1)C(=O)N[C@@H](CCCNC(=N)N)C(=O)N[C@@H](CCC(N)=O)C(=O)N[C@@H](CCCNC(=N)N)C(=O)N[C@@H](CC1CCCCC1)C(N)=O [Compound 28] (Cyclohexanecarbonyl-RH[Cha][Cha]N[Phe(4-F)][Aib]TRQR[Cha]-NH2)
IC50 (human Y2R [1]): 31 nM
EC50 (human Y2R [2]): 7.2 nM
% food intake inhibition (male C57BL/6J mice; bolus ip 500 nmol/kg): 21 ± 7%

CC(C)C[C@H](NC(=O)[C@H](CC(N)=O)NC(=O)[C@H](CC1CCCCC1)NC(=O)[C@H](Cc1ccc2ccccc2c1)NC(=O)[C@H](Cc1c[nH]cn1)NC(=O)[C@H](CCCNC(=N)N)NC(=O)C1CCCCC1)C(=O)NC(C)(C)C(=O)N[C@H](C(=O)N[C@@H](CCCNC(=N)N)C(=O)N[C@@H](CCC(N)=O)C(=O)N[C@@H](CCCNC(=N)N)C(=O)N[C@@H](CC1CCCCC1)C(N)=O)[C@@H](C)O [Compound 29] (Cyclohexanecarbonyl-RH[2Nal][Cha]NL[Aib]TRQR[Cha]-NH2)
IC50 (human Y2R [1]): 18 nM
EC50 (human Y2R [2]): 14 nM
% food intake inhibition (male C57BL/6J mice; bolus ip 500 nmol/kg): 28 ± 8%
